Data reported in patent US6602487B1, “Methods and tests for producing and for inhibiting coronary artery vasospasms” (Dimera Incorporated, priority 1997, dated 2003).

Tested on: coronary arteries
Details: 67 nmol/liter ACh IC, all monkeys

SMILES: CC(=O)OCC[N+](C)(C)C [ACh, acetylcholine]
- time to vasodilation: ≤ 15 s
